# Reference: publication PMC3956125 (Molecular cancer therapeutics, 2013)
# Columns and labels:
# CYP3A4 = CYP3A4 (Homo sapiens, UniProt P08684); test: multiple CYP assay in human liver microsomes; conditions: 10 μM
# 786-O cells [1] = test: cell cycle analysis by flow cytometry; assay type: cell-based, human; conditions: increasing concentrations, 24 hours
# 786-O cells [2] = test: intracellular glucose measurement; assay type: cell-based, human; conditions: 24 hours
# CYP1A2 = target: T1, CYP1A2 (Homo sapiens, UniProt P05177); test: multiple CYP assay in human liver microsomes; conditions: 10 μM
# T1 sequence (P05177 1-516): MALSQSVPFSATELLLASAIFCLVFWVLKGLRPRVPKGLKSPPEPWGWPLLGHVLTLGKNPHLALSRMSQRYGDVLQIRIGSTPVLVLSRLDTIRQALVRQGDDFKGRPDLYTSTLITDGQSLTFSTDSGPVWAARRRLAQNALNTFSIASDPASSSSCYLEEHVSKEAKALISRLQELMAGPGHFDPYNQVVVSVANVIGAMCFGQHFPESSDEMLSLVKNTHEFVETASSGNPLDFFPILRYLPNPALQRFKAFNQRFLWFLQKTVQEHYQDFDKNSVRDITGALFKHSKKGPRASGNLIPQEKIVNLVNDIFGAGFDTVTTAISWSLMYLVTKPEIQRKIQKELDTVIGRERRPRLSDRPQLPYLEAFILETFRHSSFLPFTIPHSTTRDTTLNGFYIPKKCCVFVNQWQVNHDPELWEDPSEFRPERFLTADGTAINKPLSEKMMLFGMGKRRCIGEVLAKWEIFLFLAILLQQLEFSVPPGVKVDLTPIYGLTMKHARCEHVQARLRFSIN
# 786-O cells [3] = test: Annexin-FITC/PI apoptosis assay; assay type: cell-based, human; conditions: 48 hours
# SKOV3 ovarian cancer = conditions: SKOV3 xenograft; cited from earlier work
# A498 cells [4] = test: 3H-thymidine incorporation proliferation assay; assay type: cell-based, human
# CYP2C9 = CYP2C9 (Homo sapiens, UniProt P11712); test: multiple CYP assay in human liver microsomes; conditions: 10 μM
# Chain of CYP2C9 (P11712 whole entry): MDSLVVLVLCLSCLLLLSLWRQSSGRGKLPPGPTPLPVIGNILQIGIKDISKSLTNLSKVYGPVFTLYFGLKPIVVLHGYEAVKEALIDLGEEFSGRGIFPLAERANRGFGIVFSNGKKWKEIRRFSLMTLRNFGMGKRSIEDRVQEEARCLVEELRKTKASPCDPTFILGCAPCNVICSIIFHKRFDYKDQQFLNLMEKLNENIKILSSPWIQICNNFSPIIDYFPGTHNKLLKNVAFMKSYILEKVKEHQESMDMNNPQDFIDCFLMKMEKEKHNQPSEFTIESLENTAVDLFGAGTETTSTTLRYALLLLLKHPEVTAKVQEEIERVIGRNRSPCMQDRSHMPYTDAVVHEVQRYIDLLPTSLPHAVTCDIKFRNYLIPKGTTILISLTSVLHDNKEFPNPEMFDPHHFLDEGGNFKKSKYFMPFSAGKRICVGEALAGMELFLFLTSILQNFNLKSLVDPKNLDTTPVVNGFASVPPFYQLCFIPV
# CYP2C19 = CYP2C19 (Homo sapiens, UniProt P33261); test: multiple CYP assay in human liver microsomes; conditions: 10 μM
# Chain of CYP2C19 (P33261 whole entry): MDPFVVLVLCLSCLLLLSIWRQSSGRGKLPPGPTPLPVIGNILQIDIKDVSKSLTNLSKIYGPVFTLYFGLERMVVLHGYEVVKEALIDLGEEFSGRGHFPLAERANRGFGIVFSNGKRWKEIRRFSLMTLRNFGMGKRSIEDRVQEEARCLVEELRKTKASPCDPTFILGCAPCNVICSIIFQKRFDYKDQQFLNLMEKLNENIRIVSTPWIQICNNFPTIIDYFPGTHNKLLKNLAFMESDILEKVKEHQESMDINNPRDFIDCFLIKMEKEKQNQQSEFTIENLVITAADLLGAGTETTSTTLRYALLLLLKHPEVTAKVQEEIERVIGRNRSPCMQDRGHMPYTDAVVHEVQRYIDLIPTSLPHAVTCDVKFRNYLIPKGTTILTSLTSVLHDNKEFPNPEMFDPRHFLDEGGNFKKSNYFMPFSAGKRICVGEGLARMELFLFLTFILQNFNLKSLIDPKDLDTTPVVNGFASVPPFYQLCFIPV
# CYP2D6 = CYP2D6 (Homo sapiens, UniProt P10635); test: multiple CYP assay in human liver microsomes; conditions: 10 μM
# Chain of CYP2D6 (P10635 whole entry): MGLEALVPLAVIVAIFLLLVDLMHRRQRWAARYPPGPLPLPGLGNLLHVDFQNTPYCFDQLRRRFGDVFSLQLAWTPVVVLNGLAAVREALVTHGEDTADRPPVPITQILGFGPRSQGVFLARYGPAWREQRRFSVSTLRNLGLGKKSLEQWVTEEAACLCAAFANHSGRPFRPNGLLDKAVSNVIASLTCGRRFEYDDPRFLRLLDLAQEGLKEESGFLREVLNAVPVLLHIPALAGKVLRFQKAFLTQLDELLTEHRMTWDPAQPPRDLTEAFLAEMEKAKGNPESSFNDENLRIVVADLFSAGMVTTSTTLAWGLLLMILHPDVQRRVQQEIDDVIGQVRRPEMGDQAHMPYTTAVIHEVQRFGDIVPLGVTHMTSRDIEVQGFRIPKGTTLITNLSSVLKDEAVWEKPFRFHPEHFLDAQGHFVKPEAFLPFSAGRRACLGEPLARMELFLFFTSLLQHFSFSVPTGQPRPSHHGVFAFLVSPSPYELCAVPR
# A498 tumor model = test: subcutaneous xenograft anti-tumor activity; assay type: in vivo, mouse; conditions: 4 weeks
# 786-O cells [5] = test: 3H-thymidine incorporation proliferation assay; assay type: cell-based, human
# 786-O cells [6] = test: Western blot / immunofluorescence of marker proteins; assay type: cell-based, human
# [7] = test system: pancreatic and ovarian cancer cells; conditions: cited from earlier work
# A498 cells [8] = test: cell cycle analysis by flow cytometry; assay type: cell-based, human; conditions: increasing concentrations, 24 hours
# metabolic stability = conditions: human liver microsomes, after 60 min of incubation
# CYP2B6 = target: T2, CYP2B6 (Homo sapiens, UniProt P20813); test: multiple CYP assay in human liver microsomes; conditions: 10 μM
# T2 sequence (P20813 1-491): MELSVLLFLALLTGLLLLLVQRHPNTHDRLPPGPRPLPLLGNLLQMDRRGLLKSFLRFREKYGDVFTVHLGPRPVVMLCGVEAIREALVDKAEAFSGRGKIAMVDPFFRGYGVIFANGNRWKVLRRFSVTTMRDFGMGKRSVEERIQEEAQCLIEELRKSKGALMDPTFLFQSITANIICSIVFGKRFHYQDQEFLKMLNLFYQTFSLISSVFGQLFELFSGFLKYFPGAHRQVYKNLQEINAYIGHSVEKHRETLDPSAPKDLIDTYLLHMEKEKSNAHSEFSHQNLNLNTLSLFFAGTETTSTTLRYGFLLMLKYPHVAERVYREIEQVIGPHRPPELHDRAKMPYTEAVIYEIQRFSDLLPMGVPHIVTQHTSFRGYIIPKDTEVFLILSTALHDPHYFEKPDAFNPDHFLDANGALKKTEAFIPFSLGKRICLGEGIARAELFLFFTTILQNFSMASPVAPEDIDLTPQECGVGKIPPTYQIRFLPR
# A498 cells [9] = test: intracellular glucose measurement; assay type: cell-based, human; conditions: 24 hours
# A498 cells [10] = test: Annexin-FITC/PI apoptosis assay; assay type: cell-based, human; conditions: 48 hours
# panel of 320 kinases = test: kinase selectivity profile, single dose; assay type: biochemical
# hERG = hERG (Homo sapiens, UniProt Q12809); test: hERG inhibition; assay type: cell-based; conditions: read-out: IC50 for hERG inhibition; patch-clamp
# Chain of hERG (Q12809 whole entry): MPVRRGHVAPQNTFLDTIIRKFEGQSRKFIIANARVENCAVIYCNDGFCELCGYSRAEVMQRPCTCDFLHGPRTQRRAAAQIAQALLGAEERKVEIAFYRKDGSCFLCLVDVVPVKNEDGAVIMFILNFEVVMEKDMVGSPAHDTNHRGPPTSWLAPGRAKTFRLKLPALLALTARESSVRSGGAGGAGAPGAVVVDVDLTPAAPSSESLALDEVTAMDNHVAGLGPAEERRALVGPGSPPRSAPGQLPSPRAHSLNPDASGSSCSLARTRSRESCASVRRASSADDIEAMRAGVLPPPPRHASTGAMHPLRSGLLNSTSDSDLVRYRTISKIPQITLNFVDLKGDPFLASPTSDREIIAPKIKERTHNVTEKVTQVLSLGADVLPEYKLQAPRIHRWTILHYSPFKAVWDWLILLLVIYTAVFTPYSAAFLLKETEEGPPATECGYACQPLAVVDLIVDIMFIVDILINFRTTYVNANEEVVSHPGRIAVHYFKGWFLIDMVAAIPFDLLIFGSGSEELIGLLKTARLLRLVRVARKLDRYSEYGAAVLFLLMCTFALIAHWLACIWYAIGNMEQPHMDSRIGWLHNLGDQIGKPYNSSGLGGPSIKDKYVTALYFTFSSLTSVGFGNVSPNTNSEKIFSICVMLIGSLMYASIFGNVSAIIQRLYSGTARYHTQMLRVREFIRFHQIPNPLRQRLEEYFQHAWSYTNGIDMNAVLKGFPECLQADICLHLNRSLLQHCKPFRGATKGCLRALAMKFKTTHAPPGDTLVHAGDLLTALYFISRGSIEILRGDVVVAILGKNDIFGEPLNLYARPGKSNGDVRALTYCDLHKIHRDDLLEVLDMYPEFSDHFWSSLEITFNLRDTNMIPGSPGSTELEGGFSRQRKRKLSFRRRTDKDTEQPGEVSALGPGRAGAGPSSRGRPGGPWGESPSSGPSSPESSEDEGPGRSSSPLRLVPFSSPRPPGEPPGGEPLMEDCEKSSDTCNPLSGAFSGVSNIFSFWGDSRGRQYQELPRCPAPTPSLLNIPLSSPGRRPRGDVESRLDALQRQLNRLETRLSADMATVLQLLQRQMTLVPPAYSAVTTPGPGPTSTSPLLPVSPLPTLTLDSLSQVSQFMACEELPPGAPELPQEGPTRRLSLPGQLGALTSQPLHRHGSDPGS
# 786-O tumor model = test: subcutaneous xenograft anti-tumor activity; assay type: in vivo, mouse; conditions: 4 weeks
# [11] = pharmacokinetic analysis of plasma levels; conditions: Sprague-Dawley rats
# A498 cells [12] = test: Western blot / immunofluorescence of marker proteins; assay type: cell-based, human
# [13] = 20 mg/kg i.p. three times a week, p<0.05
# [14] = tumor tissue sections, 20 mg/kg i.p.
# Chain of CYP3A4 (P08684 whole entry): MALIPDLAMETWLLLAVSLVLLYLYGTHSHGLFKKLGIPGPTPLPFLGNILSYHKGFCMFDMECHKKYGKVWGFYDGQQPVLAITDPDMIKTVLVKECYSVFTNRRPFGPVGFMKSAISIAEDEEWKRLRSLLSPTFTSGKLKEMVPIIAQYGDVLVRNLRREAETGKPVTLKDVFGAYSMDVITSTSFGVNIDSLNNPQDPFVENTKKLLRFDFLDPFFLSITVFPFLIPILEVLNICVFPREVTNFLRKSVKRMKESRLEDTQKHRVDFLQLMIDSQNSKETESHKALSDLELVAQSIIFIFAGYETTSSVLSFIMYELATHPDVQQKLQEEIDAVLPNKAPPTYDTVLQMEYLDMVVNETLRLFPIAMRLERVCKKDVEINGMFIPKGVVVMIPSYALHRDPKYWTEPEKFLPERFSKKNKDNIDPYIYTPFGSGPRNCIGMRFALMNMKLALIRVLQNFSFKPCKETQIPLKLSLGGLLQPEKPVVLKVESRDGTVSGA
compound,measurement,setting,value
Cn1cc(C2=C(c3coc4ccc(F)cc34)C(=O)NC2=O)c2cc3c(cc21)OCO3 [9-ING-41],CYP activity,CYP3A4,32 % of the control
same,fraction of cells in the S phase,786-O cells [1],decreased significantly
same,intracellular glucose,786-O cells [2],dose-dependent increase
same,CYP activity,CYP1A2,≥ 50 % of the control
same,percentage of early apoptotic cells,"786-O cells [3]; 1000 nM, 786-O (DMSO 5.54%)",11.6%
same,induction of apoptosis,786-O cells [3]; 786-O,No significant induction of apoptosis
same,tumor progression in vivo,SKOV3 ovarian cancer,attenuate tumor progression
same,inhibition in proliferation,"A498 cells [4]; 500 nM, 72 hours, A498",~ 40%
same,inhibition of proliferation,"A498 cells [4]; 1000 nM, 72 hours, A498",almost complete inhibition
same,IC50,"A498 cells [4]; read-out: cell growth inhibition IC50, A498",< 1 µM
same,CYP activity,CYP2C9,≥ 50 % of the control
same,CYP activity,CYP2C19,≥ 50 % of the control
same,CYP activity,CYP2D6,≥ 50 % of the control
same,tumor growth vs control group,A498 tumor model; [13],significant reduction of tumor growth
same,abundance of Ki67-positive nuclei vs control group,A498 tumor model; [14],significantly lower
same,inhibition in proliferation,"786-O cells [5]; 500 nM, 72 hours",~ 40%
same,inhibition of proliferation,"786-O cells [5]; 1000 nM, 72 hours",almost complete inhibition
same,IC50,786-O cells [5]; read-out: cell growth inhibition IC50,< 1 µM
same,phosphorylation of AMPK-α and AMPK-β,"786-O cells [6]; 24-48 hours, Western blot",increase in phosphorylation
same,cyclin D1 protein expression,"786-O cells [6]; 24 hours, Western blot",down-regulated
same,Id-1 expression,"786-O cells [6]; 48 hours, Western blot",decreased
same,Ksp-cadherin expression,"786-O cells [6]; 48 hours, Western blot",dose-dependent increase
same,LC3B levels (autophagy),786-O cells [6]; Western blot and immunofluorescence,increased levels
same,antiproliferative activity,[7],potent antiproliferative agent
same,fraction of cells in the S phase,A498 cells [8],decreased significantly
same,parent compound remained,metabolic stability,78.9%
same,CYP activity,CYP2B6,≥ 50 % of the control
same,intracellular glucose,A498 cells [9],dose-dependent increase
same,induction of apoptosis,A498 cells [10],No significant induction of apoptosis
same,number of kinases with less than 50% remaining activity,"panel of 320 kinases; 10 μM single dose, duplicates, panel of 320 kinases",35
same,discrimination between GSK-3α and GSK-3β,"panel of 320 kinases; SI Table S1, 10 μM",inhibits them equally
same,IC50,hERG,21 µM
same,tumor growth vs control group,786-O tumor model; [13],significant reduction of tumor growth
same,abundance of Ki67-positive nuclei vs control group,786-O tumor model; [14],significantly lower
same,elimination half-life,[11],4.85 h
same,volumes of distribution,[11],≥ 10 L/kg
same,phosphorylation of AMPK-α and AMPK-β,"A498 cells [12]; 24-48 hours, A498, Western blot",increase in phosphorylation
same,cyclin D1 protein expression,"A498 cells [12]; 24 hours, A498, Western blot",down-regulated
same,Id-1 expression,"A498 cells [12]; 48 hours, A498, Western blot",decreased
same,Ksp-cadherin expression,"A498 cells [12]; 48 hours, A498, Western blot",dose-dependent increase
same,LC3B levels (autophagy),"A498 cells [12]; A498, Western blot and immunofluorescence",increased levels
"GSK-3β siRNA: Qiagen siRNA against GSK-3β, target sequence 5'-CCCAAATGTCAAACTACCAAA-3' (sense CAAAUGUCAAACUACCAAATT; antisense UUUGGUAGUUUGACAUUUGGG; chemistry not given here) [reference compound]",inhibition of proliferation,"A498 cells [4]; siRNA 100 nM, 72 hours, A498, p<0.01",slight yet significant inhibition
same,inhibition of proliferation,"786-O cells [5]; siRNA 100 nM, 72 hours, p<0.01",slight yet significant inhibition
